Assay results published in PubChem BioAssay AID2060889 (Molecular Pharmacology Branch, DTP, NCI, 2025).
Blank lines part the entries; values can stand above or below the compound they belong to.

Tested on: LG0567-F671-PDC complex spheroids viability
Assay: Anticancer human tumor LG0567-F671-PDC patient-derived lung adenocarcinoma cell line growth inhibition [RAS]
Conditions: for viability, T/C: stronger effect = lower value
How it was run: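 Agents were tested in combination matrices in half-log decrements from a top concentration at or near clinical Cmax (10 microM if undetermined). Targets were multi-cell spheroids of tumour lines plus HUVEC and MSC stromal cells.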

[1] = curve of first compound, second compound 0.0316 µM
[2] = curve of first compound, second compound 0.1 µM
[3] = curve of first compound, second compound 0.316 µM
[4] = curve of first compound, second compound 1 µM
[5] = curve of first compound, second compound 3.16 µM
[6] = curve of first compound, second compound 10 µM
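Further: spheroids exposed to compound for seven days before readout.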
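Wherever IC50 is given: luminescence signal used as a proxy for viable cells.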

IC50 [1]: 4.36 nM | IC50 [2]: < 0.949 nM | IC50 [3]: < 0.949 nM | IC50 [4]: < 0.949 nM | IC50 [5]: < 0.949 nM | IC50 [6]: < 0.949 nM
SMILES: CC1(C)CCC(Nc2ncc(C(F)(F)F)c(-c3c[nH]c4c(P(C)(C)=O)c(C#N)ccc34)n2)CN1 (stereo unspecified) + C#Cc1c(F)ccc2cc(O)cc(-c3ncc4c(N5CC6CCC(C5)N6)nc(OCC56CCCN5CC(F)C6)nc4c3F)c12
viability, T/C (second compound 0.0316 µM, first compound 0.000949 µM): 61.2% | viability, T/C (second compound 0.0316 µM, first compound 0.003 µM): 50.8% | viability, T/C (second compound 0.0316 µM, first compound 0.00949 µM): 48.4% | viability, T/C (second compound 0.0316 µM, first compound 0.03 µM): 45.5% | viability, T/C (second compound 0.0316 µM, first compound 0.0949 µM): 43.3% | viability, T/C (second compound 0.0316 µM, first compound 0.3 µM): 46% | viability, T/C (second compound 0.1 µM, first compound 0.000949 µM): 54.5% | viability, T/C (second compound 0.1 µM, first compound 0.003 µM): 45.1% | viability, T/C (second compound 0.1 µM, first compound 0.00949 µM): 42.7% | viability, T/C (second compound 0.1 µM, first compound 0.03 µM): 45.3% | viability, T/C (second compound 0.1 µM, first compound 0.0949 µM): 45.2% | viability, T/C (second compound 0.1 µM, first compound 0.3 µM): 44.4% | viability, T/C (second compound 0.316 µM, first compound 0.000949 µM): 40.9% | viability, T/C (second compound 0.316 µM, first compound 0.003 µM): 34.8% | viability, T/C (second compound 0.316 µM, first compound 0.00949 µM): 36% | viability, T/C (second compound 0.316 µM, first compound 0.03 µM): 32.6% | viability, T/C (second compound 0.316 µM, first compound 0.0949 µM): 34.1% | viability, T/C (second compound 0.316 µM, first compound 0.3 µM): 34.1% | viability, T/C (second compound 1 µM, first compound 0.000949 µM): 22.6% | viability, T/C (second compound 1 µM, first compound 0.003 µM): 21.8% | viability, T/C (second compound 1 µM, first compound 0.00949 µM): 23.2% | viability, T/C (second compound 1 µM, first compound 0.03 µM): 21.7% | viability, T/C (second compound 1 µM, first compound 0.0949 µM): 23% | viability, T/C (second compound 1 µM, first compound 0.3 µM): 25.2% | viability, T/C (second compound 3.16 µM, first compound 0.000949 µM): 15.2% | viability, T/C (second compound 3.16 µM, first compound 0.003 µM): 12.6% | viability, T/C (second compound 3.16 µM, first compound 0.00949 µM): 13.6% | viability, T/C (second compound 3.16 µM, first compound 0.03 µM): 15.4% | viability, T/C (second compound 3.16 µM, first compound 0.0949 µM): 16% | viability, T/C (second compound 3.16 µM, first compound 0.3 µM): 15.3% | viability, T/C (second compound 10 µM, first compound 0.000949 µM): 9.1% | viability, T/C (second compound 10 µM, first compound 0.003 µM): 8.15% | viability, T/C (second compound 10 µM, first compound 0.00949 µM): 8.73% | viability, T/C (second compound 10 µM, first compound 0.03 µM): 8.94% | viability, T/C (second compound 10 µM, first compound 0.0949 µM): 9.91% | viability, T/C (second compound 10 µM, first compound 0.3 µM): 8.26%

IC50 [1]: 19.6 nM | IC50 [2]: 17.8 nM | IC50 [3]: 1.32 nM | IC50 [4]: < 0.316 nM | IC50 [5]: < 0.316 nM | IC50 [6]: < 0.316 nM
SMILES: CC(C)n1nc(-c2ccc3oc(N)nc3c2)c2c(N)ncnc21 + C#Cc1c(F)ccc2cc(O)cc(-c3ncc4c(N5CC6CCC(C5)N6)nc(OCC56CCCN5CC(F)C6)nc4c3F)c12
viability, T/C (second compound 0.0316 µM, first compound 0.000316 µM): 90.7% | viability, T/C (second compound 0.0316 µM, first compound 0.001 µM): 77.8% | viability, T/C (second compound 0.0316 µM, first compound 0.00316 µM): 83.4% | viability, T/C (second compound 0.0316 µM, first compound 0.01 µM): 58.3% | viability, T/C (second compound 0.0316 µM, first compound 0.0316 µM): 44.3% | viability, T/C (second compound 0.0316 µM, first compound 0.1 µM): 34.1% | viability, T/C (second compound 0.1 µM, first compound 0.000316 µM): 73.3% | viability, T/C (second compound 0.1 µM, first compound 0.001 µM): 73.5% | viability, T/C (second compound 0.1 µM, first compound 0.00316 µM): 61.1% | viability, T/C (second compound 0.1 µM, first compound 0.01 µM): 58.2% | viability, T/C (second compound 0.1 µM, first compound 0.0316 µM): 43.2% | viability, T/C (second compound 0.1 µM, first compound 0.1 µM): 33% | viability, T/C (second compound 0.316 µM, first compound 0.000316 µM): 52.9% | viability, T/C (second compound 0.316 µM, first compound 0.001 µM): 48.9% | viability, T/C (second compound 0.316 µM, first compound 0.00316 µM): 49.1% | viability, T/C (second compound 0.316 µM, first compound 0.01 µM): 40.8% | viability, T/C (second compound 0.316 µM, first compound 0.0316 µM): 34.2% | viability, T/C (second compound 0.316 µM, first compound 0.1 µM): 28.5% | viability, T/C (second compound 1 µM, first compound 0.000316 µM): 36.7% | viability, T/C (second compound 1 µM, first compound 0.001 µM): 36.2% | viability, T/C (second compound 1 µM, first compound 0.00316 µM): 30.8% | viability, T/C (second compound 1 µM, first compound 0.01 µM): 24.9% | viability, T/C (second compound 1 µM, first compound 0.0316 µM): 22.3% | viability, T/C (second compound 1 µM, first compound 0.1 µM): 18.5% | viability, T/C (second compound 3.16 µM, first compound 0.000316 µM): 21.4% | viability, T/C (second compound 3.16 µM, first compound 0.001 µM): 19.9% | viability, T/C (second compound 3.16 µM, first compound 0.00316 µM): 20.1% | viability, T/C (second compound 3.16 µM, first compound 0.01 µM): 15.6% | viability, T/C (second compound 3.16 µM, first compound 0.0316 µM): 13.6% | viability, T/C (second compound 3.16 µM, first compound 0.1 µM): 9.08% | viability, T/C (second compound 10 µM, first compound 0.000316 µM): 11.7% | viability, T/C (second compound 10 µM, first compound 0.001 µM): 10.7% | viability, T/C (second compound 10 µM, first compound 0.00316 µM): 8.74% | viability, T/C (second compound 10 µM, first compound 0.01 µM): 9.19% | viability, T/C (second compound 10 µM, first compound 0.0316 µM): 6.42% | viability, T/C (second compound 10 µM, first compound 0.1 µM): 5.01%

IC50 (curve of compound): 93.7 nM [middle of 4 runs]
SMILES: Cc1nc(N2CCC3(CC2)COC(C)C3N)c(CO)nc1Sc1ccnc(N)c1Cl (stereo unspecified)
viability, T/C (compound 0.0316 µM): 72.2% [middle of 4 runs] | viability, T/C (compound 0.1 µM): 48.2% [middle of 4 runs] | viability, T/C (compound 0.316 µM): 36.3% [middle of 4 runs] | viability, T/C (compound 1 µM): 28.1% [middle of 4 runs] | viability, T/C (compound 3.16 µM): 21.7% [middle of 4 runs] | viability, T/C (compound 10 µM): 19.9% [middle of 4 runs]
